In ChEMBL document CHEMBL3808363, “2-(Thienothiazolylimino)-1,3-thiazolidin-4-ones inhibit cell division cycle 25 A phosphatase” (Bioorg Med Chem, 2016):
Activity calls are given as the source filed them. No cut-off for these calls is given here.

What was measured:
[1] = target: T1, M-phase inducer phosphatase 1 (Homo sapiens) (UniProt P30304); assay: Inhibition of human recombinant full length GST-tagged CDC25A transfected in Escherichia coli BL21-DE3 using 3-O-methylfluorescein phosphate as substrate at 10 uM incubated for 20 mins followed by substrate addition measured every 10 mins for 2 hrs by fluorimetric assay in presence of 0.1% triton X 100
T1 sequence (whole entry): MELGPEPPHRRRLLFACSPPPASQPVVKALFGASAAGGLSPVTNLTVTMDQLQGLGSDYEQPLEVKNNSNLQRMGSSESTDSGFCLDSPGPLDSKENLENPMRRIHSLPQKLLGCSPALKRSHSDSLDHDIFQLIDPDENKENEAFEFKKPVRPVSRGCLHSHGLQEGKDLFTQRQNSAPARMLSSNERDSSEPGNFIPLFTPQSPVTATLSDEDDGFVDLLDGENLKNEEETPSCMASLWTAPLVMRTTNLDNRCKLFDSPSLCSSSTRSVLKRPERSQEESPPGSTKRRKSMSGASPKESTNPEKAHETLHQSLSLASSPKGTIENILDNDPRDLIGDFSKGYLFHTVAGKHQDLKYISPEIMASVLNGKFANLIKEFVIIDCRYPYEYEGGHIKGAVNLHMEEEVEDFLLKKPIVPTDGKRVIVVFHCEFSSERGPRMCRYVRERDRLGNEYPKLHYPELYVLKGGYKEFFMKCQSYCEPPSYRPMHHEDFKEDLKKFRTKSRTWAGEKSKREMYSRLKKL

MCF7 [2] = assay: Induction of apoptosis in human MCF7 cells assessed as chromatin condensation after 24 to 48 hrs by DAPI staining based UV fluorescent microscopy; type: functional, cell-based
MDA-MB-231 [3] = assay: Induction of reactive oxygen species production in human MDA-MB-231 cells at IC50 concentration up to 6 hrs by DCF-2DA dye based flow cytometry; type: functional, cell-based
[4] = target: T2, M-phase inducer phosphatase 1 (Homo sapiens, UniProt P30304); assay: Mixed type inhibition of human recombinant full length GST-tagged CDC25A transfected in Escherichia coli BL21-DE3 assessed as enzyme/substrate/inhibitor complex using 3-O-methylfluorescein phosphate as substrate at 20 uM incubated for 20 mins followed by substrate addition measured every 10 mins for 2 hrs by fluorimetric assay
T2 sequence (P30304 whole entry): T1 sequence (whole entry)

[5] = target: T1, M-phase inducer phosphatase 1 (Homo sapiens); assay: Reversible binding affinity to human recombinant full length GST-tagged CDC25A transfected in Escherichia coli BL21-DE3 after 1 hr by MALDI-TOF mass spectrometry
MDA-MB-231 [6] = assay: Induction of apoptosis in human MDA-MB-231 cells assessed as nuclear fragmentation after 24 hrs by dihydro-rhodamine 123/hoechst […] staining based UV fluorescent microscopy; type: functional, cell-based
MDA-MB-231 [7] = assay: Cytostatic activity against human MDA-MB-231 cells at IC50 concentration; type: functional, cell-based
[8] = target: T1, M-phase inducer phosphatase 1 (Homo sapiens); assay: Inhibition of human recombinant full length GST-tagged CDC25A transfected in Escherichia coli BL21-DE3 using 3-O-methylfluorescein phosphate as substrate at 10 uM incubated for 20 mins followed by substrate addition measured every 10 mins for 2 hrs by fluorimetric assay
[9] = Cytotoxicity against human HCT116 cells assessed as inhibition of cell growth after 72 hrs by MTT assay; type: functional, cell-based; conditions: HCT-116, 72 h
MDA-MB-231 [10] = assay: Increase in RNS levels in human MDA-MB-231 cells at IC50 concentration incubated for 24 hrs by DAF-2DA dye based flow cytometry; type: functional, cell-based
[11] = target: T1, M-phase inducer phosphatase 1 (Homo sapiens); assay: Inhibition of human recombinant full length GST-tagged CDC25A transfected in Escherichia coli BL21-DE3 using 3-O-methylfluorescein phosphate as substrate at 10 uM incubated for 20 mins followed by substrate addition measured every 10 mins for 2 hrs by fluorimetric assay in presence of 0.025% triton X 100
[12] = target: T1, M-phase inducer phosphatase 1 (Homo sapiens); assay: Inhibition of human recombinant full length GST-tagged CDC25A transfected in Escherichia coli BL21-DE3 using 3-O-methylfluorescein phosphate as substrate at 10 uM incubated for 20 mins followed by substrate addition measured every 10 mins for 2 hrs by fluorimetric assay in presence of 0.05% triton X 100
MDA-MB-231 [13] = assay: Cytotoxicity against human MDA-MB-231 cells assessed as inhibition of cell growth at IC50 concentration after 72 hrs by trypan blue assay; type: functional
[14] = target: Cyclin-dependent kinase 1 (Homo sapiens) (UniProt P06493); assay: Effect on CDK1 phosphorylation in human MCF7 cells after 6 hrs by Western blot analysis; type: cell-based
Chain of Cyclin-dependent kinase 1 (Homo sapiens) (P06493 whole entry, looked up): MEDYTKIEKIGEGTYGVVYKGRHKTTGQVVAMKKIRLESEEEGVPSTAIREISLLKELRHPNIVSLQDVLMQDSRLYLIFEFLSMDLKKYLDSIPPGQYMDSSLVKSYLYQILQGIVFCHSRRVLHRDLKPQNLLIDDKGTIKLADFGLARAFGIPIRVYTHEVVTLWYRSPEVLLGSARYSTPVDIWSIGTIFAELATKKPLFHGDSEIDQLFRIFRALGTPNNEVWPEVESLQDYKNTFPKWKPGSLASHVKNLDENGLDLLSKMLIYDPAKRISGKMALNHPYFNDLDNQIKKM

MDA-MB-231 [15] = assay: Cytotoxicity against human MDA-MB-231 cells assessed as inhibition of cell growth after 72 hrs by MTT assay; type: functional, cell-based; conditions: MDA-MB-231, 72 h
MCF7 [16] = assay: Cytostatic activity against human MCF7 cells at IC50 concentration; type: functional, cell-based
MDA-MB-231 [17] = assay: Induction of autophagy in human MDA-MB-231 cells assessed as acidic vesicles at 8.4 uM over 3 days by acridine orange dye based flow cytometry; type: functional, cell-based
MDA-MB-231 [18] = assay: Induction of apoptosis in human MDA-MB-231 cells assessed as chromatin condensation after 24 to 48 hrs by DAPI staining based UV fluorescent microscopy; type: functional, cell-based
[19] = target: T2, M-phase inducer phosphatase 1; assay: Mixed type inhibition of human recombinant full length GST-tagged CDC25A transfected in Escherichia coli BL21-DE3 assessed as enzyme/substrate/inhibitor complex using 3-O-methylfluorescein phosphate as substrate at 5 uM incubated for 20 mins followed by substrate addition measured every 10 mins for 2 hrs by fluorimetric assay
[20] = target: Cyclin-dependent kinase 1 (Homo sapiens) (UniProt P06493); assay: Effect on CDK1 phosphorylation in human MDA-MB-231 after 6 hrs by Western blot analysis
[21] = target: T1, M-phase inducer phosphatase 1 (Homo sapiens); assay: Inhibition of human recombinant full length GST-tagged CDC25A transfected in Escherichia coli BL21-DE3 using 3-O-methylfluorescein phosphate as substrate at 10 uM incubated for 20 mins followed by substrate addition measured every 10 mins for 2 hrs by fluorimetric assay in presence of 0.01% triton X 100
MCF7 [22] = assay: Cell cycle arrest in human MCF7 cells assessed as accumulation at G0/G1 phase at IC50 concentration after 48 hrs by propidium iodide staining-based flow cytometry (reference value: 66.7 +/- 1.6%); type: functional
MDA-MB-231 [23] = assay: Increase in peroxynitryl radical levels in human MDA-MB-231 cells at IC50 concentration incubated for 24 hrs by DHR dye based flow cytometry; type: functional, cell-based
[24] = target: T1, M-phase inducer phosphatase 1 (Homo sapiens); assay: Inhibition of human recombinant full length GST-tagged CDC25A transfected in Escherichia coli BL21-DE3 using 3-O-methylfluorescein phosphate as substrate at 10 uM incubated for 20 mins followed by substrate addition measured every 10 mins for 2 hrs by fluorimetric assay in presence of 0.5% triton X 100
MCF7 [25] = assay: Cell cycle arrest in human MCF7 cells assessed as accumulation at subG1 phase at IC50 concentration after 48 hrs by propidium iodide staining-based flow cytometry; type: functional
MCF7 [26] = assay: Cell cycle arrest in human MCF7 cells assessed as accumulation at S phase at IC50 concentration after 48 hrs by propidium iodide staining-based flow cytometry (reference value: 19.5 +/- 0.6%); type: functional
MDA-MB-231 [27] = assay: Cell cycle arrest in human MDA-MB-231 cells assessed as accumulation at G2/M phase at IC50 concentration after 48 hrs by propidium iodide staining-based flow cytometry (reference value: 20.9 +/- 1.1%); type: functional

SMILES: COc1ccc(/C=C2/S/C(=N\c3nc4cc(-c5ccc(Cl)cc5)sc4s3)NC2=O)cc1
- inhibition [1]: 86.2%
- Activity (MCF7 [2]): inactive
- Activity (MDA-MB-231 [3]): inactive
- Ki [4]: 3.9 µM
- Activity [5]: Active
- Activity (MDA-MB-231 [6]): inactive
- Activity (MDA-MB-231 [7]): Active
- inhibition [8]: 70.3%
- IC50 [9]: 9.2 µM
- Activity (MDA-MB-231 [10]): Active
- inhibition [11]: 27.1%
- inhibition [12]: 54.4%
- growth inhibition (GI) (MDA-MB-231 [13]): 70%
- Activity [14]: inactive
- IC50 (MDA-MB-231 [15]): 8.4 µM
- Activity (MCF7 [16]): Active
- Activity (MDA-MB-231 [17]): inactive
- Activity (MDA-MB-231 [18]): inactive
- Ki [19]: 12.2 µM
- Activity [20]: inactive
- inhibition [21]: 28.2%
- Activity (MCF7 [22]): 58.8%
- Activity (MDA-MB-231 [23]): Active
- inhibition [24]: 97.5%
- Activity (MCF7 [25]): inactive
- Activity (MCF7 [26]): 25.3%
- Activity (MDA-MB-231 [27]): 15.9%
